Experimental data published in article PMC3411462, “Long-acting κ opioid antagonists nor-BNI, GNTI and JDTic: pharmacokinetics in mice and lipophilicity” (BMC Pharmacology, 2012).
Read-outs that look alike come from different tables or passages of the source.

Key:
[1] = Brain and plasma concentrations in mice after intraperitoneal administration (LC-MS-MS), non-compartmental analysis; format: in vivo; conditions: for concentration at 1 h / concentration at 2 h / half-life / AUC(0-inf) / concentration at 0.5 h / concentration at 4 h / concentration at 24 h / CL/F / Vd/F: 10 mg/kg; for half-life: read-out: t1/2 (converted); for k el: read-out: Lambda_z (converted)
κ opioid receptor = tested on: κ opioid receptor; parameters: method as in PMID 15464069; conditions: intragastric administration; cited from earlier work
[2] = male, Swiss-Webster, mouse, ip, brain NCA, 10 mg/kg i.p.
[3] = male, Swiss-Webster, mouse, ip, plasma NCA, 10 mg/kg i.p.
[4] = male, Swiss-Webster, mouse, plasma, intraperitoneal, read-out: Conc (plasma, NCA input)
[5] = male, Swiss-Webster, mouse, plasma, ip, 10 mg/kg i.p., read-out: mean (plasma)
[6] = male, Swiss-Webster, mouse, plasma, ip, 10 mg/kg i.p., individual mice, read-out: [drug],plasma (free base equivalent)

CC(C)[C@@H](CN1CC[C@@](C)(c2cccc(O)c2)[C@@H](C)C1)NC(=O)[C@H]1Cc2ccc(O)cc2CN1 [JDTic, (3R)-7-Hydroxy-N-((1S)-1-{[(3R,4R)-4-(3-hydroxyphenyl)-3,4-dimethyl-1-piperidinyl]methyl}-2-methylpropyl)-1,2,3,4-tetrahydro-3-isoquinolinecarboxamide] showed a concentration at 1 h ([1]; male, Swiss-Webster, mouse, brain, ip, 10 mg/kg i.p., read-out: mean (brain)) of 61.1 ng/g, a concentration at 2 h ([1]; male, Swiss-Webster, mouse, brain, ip, 10 mg/kg i.p., individual mice, read-out: [drug],brain (free base equivalent)) of 30 ng/g and a concentration at 2 h ([1]; male, Swiss-Webster, mouse, brain, ip, 10 mg/kg i.p., <MRC substituted by MRC/2, read-out: mean (brain)) of 38.4 ng/g. It also gave a half-life ([1]; male, Swiss-Webster, mouse, brain, ip, brain NCA, 10 mg/kg i.p.) of 220 h, an AUC(0-inf) ([1]; male, Swiss-Webster, mouse, brain, ip, brain, 10 mg kg^-1 i.p., non-compartmental analysis, read-out: AUC 0–∞,brain) of 10300 ng·h/mL and a Tmax ([1]; male, Swiss-Webster, mouse, in vivo, ip, ·2HCl salts, 10 mg kg^-1 i.p., mice) of 0.5 h. It also gave an AUC(0-t) [1, 2] of 4400 ng·h/mL, a Tmax [1, 2] of 0.5 h and a Cmax ([1]; male, Swiss-Webster, mouse, ip, brain NCA, 10 mg/kg i.p., read-out: Cmax) of 71.1 ng/mL. It also gave a k el [1, 2] of 8.75e-07 s⁻¹, an AUC(0-t) [1, 3] of 866 ng·h/mL and a Tmax [1, 3] of 0.5 h. It also gave a k el [1, 3] of 3.75e-05 s⁻¹, an MRT inf ([1]; male, Swiss-Webster, mouse, ip, plasma NCA, 10 mg/kg i.p., read-out: MRT 0-inf_obs) of 4.3 h and a Cmax ([1]; male, Swiss-Webster, mouse, ip, plasma, 10 mg kg^-1 i.p., mice, read-out: C max,p) of 245 ng/mL. It also gave a concentration at 0.5 h [1, 4] of 245 ng/mL, a concentration at 1 h [1, 4] of 154 ng/mL and a concentration at 2 h [1, 4] of 56.9 ng/mL. It also gave a concentration at 4 h [1, 4] of 46.6 ng/mL, a concentration at 24 h [1, 4] of 3 ng/mL and a concentration at 0.5 h [1, 5] of 245 ng/mL. For the same compound, the concentration at 1 h [1, 5] was 154 ng/mL, the concentration at 2 h [1, 6] was 42.3 ng/mL and the concentration at 2 h [1, 5] was 57 ng/mL. It also gave a concentration at 4 h [1, 5] of 47 ng/mL, a concentration at 24 h [1, 6] of 5 ng/mL and a concentration at 24 h ([1]; male, Swiss-Webster, mouse, plasma, ip, 10 mg/kg i.p., <MRC substituted by MRC/2, read-out: mean (plasma)) of 3 ng/mL. For the same compound, the AUC(0-inf) ([1]; male, Swiss-Webster, mouse, plasma, ip, plasma NCA, 10 mg/kg i.p., read-out: AUC 0-inf_obs) was 888 ng·h/mL, the CL/F ([1]; male, Swiss-Webster, mouse, plasma, ip, plasma NCA, 10 mg/kg i.p., read-out: Cl/F_obs (converted)) was 188 mL/min/kg and the Vd/F ([1]; male, Swiss-Webster, mouse, plasma, ip, plasma NCA, 10 mg/kg i.p., read-out: Vz/F_obs) was 83.3 L/kg. It also gave a half-life ([1]; male, Swiss-Webster, mouse, plasma, ip, plasma NCA, 10 mg/kg i.p.) of 5.13 h, an AUC(0-inf) ([1]; male, Swiss-Webster, mouse, plasma, ip, plasma, 10 mg kg^-1 i.p., non-compartmental analysis, read-out: AUC 0–∞,p) of 888 ng·h/mL and a CL/F ([1]; male, Swiss-Webster, mouse, plasma, ip, plasma, 10 mg kg^-1 i.p., non-compartmental analysis, read-out: CL/F (converted)) of 18.3 mL/min/kg. The Vd/F ([1]; male, Swiss-Webster, mouse, plasma, ip, plasma, 10 mg kg^-1 i.p., non-compartmental analysis, read-out: V z /F) was 83 L/kg, the “Decline of mean brain level” value ([1]; over 24 hours, 10 mg kg^-1 i.p.) was 56% and the “AUMC 0-inf_obs” value ([1]; plasma NCA, 10 mg/kg i.p.) was 3814.94 ng/ml*h^2. The Tlag ([1]; plasma NCA, 10 mg/kg i.p.) was 0 h, the “Maximal plasma concentration relative to those after nor-BNI and GNTI” value ([1]; same dose, 10 mg kg^-1 i.p.) was “less than 10%” and the “C max,brain,u” value ([1]; unbound brain, 10 mg kg^-1 i.p., in vivo brain binding assumed at least 3-fold greater than homogenate) was under 4 nM. For the same compound, the “Decline of mean plasma concentration from peak” value (“Decline … from peak” below) ([1]; within 1 hour, 10 mg kg^-1 i.p.) was 37%, the “Decline … from peak” value ([1]; within 2 hours, 10 mg kg^-1 i.p.) was 77% and the “Decline … from peak” value ([1]; within 4 hours, 10 mg kg^-1 i.p.) was “at least 80%”. For the same compound, the “Delay in onset of κ antagonism” value (κ opioid receptor) was “greater than 6 hours”.
